Laboratory results from PubChem BioAssay AID743377 (Vanderbilt Specialized Chemistry Center, 2014).
Active and inactive are the calls of the source. No rule for the calls is given here.

Target: D(2) dopamine receptor (Homo sapiens) (UniProt P14416)
Assay: human DRD2 long isoform antagonists – cell-based, D2L isoform, counter-screen for D4 antagonist project, confirmation (AID 743377)
Conditions: D2L-expressing cells, antagonist counterscreen, functional read-out

Sequence of D(2) dopamine receptor (Homo sapiens) (P14416 whole entry, looked up, canonical isoform): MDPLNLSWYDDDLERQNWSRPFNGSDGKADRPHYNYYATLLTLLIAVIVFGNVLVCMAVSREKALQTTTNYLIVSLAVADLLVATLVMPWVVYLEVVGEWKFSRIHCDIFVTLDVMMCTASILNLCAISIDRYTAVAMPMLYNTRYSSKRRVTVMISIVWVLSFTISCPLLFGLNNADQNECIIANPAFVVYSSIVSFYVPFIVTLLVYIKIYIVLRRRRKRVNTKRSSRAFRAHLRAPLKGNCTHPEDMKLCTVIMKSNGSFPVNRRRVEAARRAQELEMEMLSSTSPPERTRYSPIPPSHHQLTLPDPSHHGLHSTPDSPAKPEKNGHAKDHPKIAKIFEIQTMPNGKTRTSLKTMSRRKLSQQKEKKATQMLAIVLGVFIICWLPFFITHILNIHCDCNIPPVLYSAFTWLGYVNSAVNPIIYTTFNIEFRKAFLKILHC

IC50: > 20 µM (inactive)
Structure (SMILES): Clc1ccc(CN2CCO[C@H](CCc3ccccc3)C2)cc1
